From ChEMBL document CHEMBL5257030, “Antioxidant, anticancer activities and mechanistic studies of the flavone glycoside diosmin and its oxidovanadium(IV) complex. Interactions with bovine serum albumin” (Bioorg Med Chem, 2016)
Active and inactive are the calls of the source. The calls are words filed in the database; no cut-off is given here.

What was measured:
MDA-MB-231 [1] = experiment: Antiproliferative activity against human MDA-MB-231 cells assessed as inhibition of cell growth measured after 24 hrs by MTT assay; type: functional, cell-based; details: MDA-MB-231, 24 h
T47D [2] = experiment: Cytotoxicity against human T47D cells assessed as disruption of mitochondrial membrane potential by measuring TMRM level in mitochondria at 10 uM after 24 hrs by fluorescence assay relative to control; type: functional
[3] = Antioxidant activity assessed as DPPH radical scavenging activity at 100 uM incubated for 60 mins in dark relative to control; type: functional
SK-BR-3 [4] = experiment: Cytotoxicity against human SK-BR-3 cells assessed as ROS production at 10 uM after 24 hrs by CMH2DCFDA probe-based fluorescence assay relative to control; type: functional
Albumin [5] = target: T1, Albumin (Bos taurus, UniProt P02769); experiment: Binding affinity to bovine serum albumin assessed as quenching rate constant at 298 K after 1 hr by luminescence spectrometric analysis; details: cattle
[6] = Antioxidant activity assessed as reduction in PMS induced superoxide anion activity preincubated for 15 mins followed by PMS addition and measured after 5 mins by NBT assay; type: functional; details: time 20.0 min
Albumin [7] = target: T1, Albumin; experiment: Binding affinity to bovine serum albumin assessed as free energy change at 298 K; details: cattle
[8] = Antioxidant activity assessed as reduction in ascorbate-iron-H2O2-mediated hydroxy radical generation at 100 uM after 30 mins by thiobarbituric acid method; type: functional
Albumin [9] = target: T1, Albumin; experiment: Binding affinity to bovine serum albumin assessed as Stem-Volmer quenching constant at 310 K after 1 hr by luminescence spectrometric analysis; details: cattle
A549 [10] = experiment: Cytotoxicity in human A549 cells assessed as increase in DHR123 oxidation to form rhodamine 123 measured after 30 mins by fluorescence spectroscopy; type: functional, cell-based
A549 [11] = experiment: Antiproliferative activity against human A549 cells after 72 hrs by Alamar blue assay; type: functional, cell-based; details: A549, 72 h
SK-BR-3 [12] = experiment: Cytotoxicity against human SK-BR-3 cells assessed as caspase3/7 activation at 10 uM after 24 hrs by fluorescence assay relative to control; type: functional
Albumin [13] = target: T1, Albumin; experiment: Binding affinity to bovine serum albumin assessed as free energy change at 310 K; details: cattle
Albumin [14] = target: T1, Albumin; experiment: Binding affinity to bovine serum albumin assessed as quenching rate constant at 303 K after 1 hr by luminescence spectrometric analysis; details: cattle
Albumin [15] = target: T1, Albumin; experiment: Binding affinity to bovine serum albumin assessed as association constant at 298 K after 1 hr by luminescence spectrometric analysis; details: cattle
Albumin [16] = target: T1, Albumin; experiment: Binding affinity to bovine serum albumin assessed as Stem-Volmer quenching constant at 298 K after 1 hr by luminescence spectrometric analysis; details: cattle
T47D [17] = experiment: Antiproliferative activity against human T47D cells assessed as inhibition of cell growth measured after 24 hrs by MTT assay; type: functional, cell-based
Albumin [18] = target: T1, Albumin; experiment: Binding affinity to bovine serum albumin assessed as quenching rate constant at 310 K after 1 hr by luminescence spectrometric analysis; details: cattle
MDA-MB-231 [19] = experiment: Cytotoxicity against human MDA-MB-231 cells assessed as ROS production at 10 uM after 24 hrs by CMH2DCFDA probe-based fluorescence assay relative to control; type: functional
Albumin [20] = target: T1, Albumin; experiment: Binding affinity to bovine serum albumin assessed as free energy change at 303 K; details: cattle
MDA-MB-231 [21] = experiment: Cytotoxicity against human MDA-MB-231 cells assessed as caspase3/7 activation at 10 uM after 24 hrs by fluorescence assay relative to control; type: functional
Albumin [22] = target: T1, Albumin; experiment: Binding affinity to bovine serum albumin assessed as association constant at 310 K after 1 hr by luminescence spectrometric analysis; details: cattle
T47D [23] = experiment: Cytotoxicity against human T47D cells assessed as caspase3/7 activation at 10 uM after 24 hrs by fluorescence assay relative to control; type: functional
[24] = Antioxidant activity assessed as delay in time of AAPH-induced pyranine consumption at 100 uM by spectrophotometric analysis; type: functional
SK-BR-3 [25] = experiment: Cytotoxicity against human SK-BR-3 cells assessed as disruption of mitochondrial membrane potential by measuring TMRM level in mitochondria at 10 uM after 24 hrs by fluorescence assay relative to control; type: functional
Albumin [26] = target: T1, Albumin; experiment: Binding affinity to bovine serum albumin assessed as association constant at 303 K after 1 hr by luminescence spectrometric analysis; details: cattle
T47D [27] = experiment: Cytotoxicity against human T47D cells assessed as ROS production at 10 uM after 24 hrs by CMH2DCFDA probe-based fluorescence assay relative to control; type: functional
SK-BR-3 [28] = experiment: Antiproliferative activity against human SK-BR-3 cells assessed as inhibition of cell growth measured after 24 hrs by MTT assay; type: functional, cell-based; details: SK-BR-3, 24 h
Albumin [29] = target: T1, Albumin; experiment: Binding affinity to bovine serum albumin assessed as change in enthalpy; details: cattle
A549 [30] = experiment: Cytotoxicity against human A549 cells assessed as reduction in cell viability up to 100 uM measured after 24 hrs by crystal violet staining based assay; type: functional
Albumin [31] = target: T1, Albumin; experiment: Binding affinity to bovine serum albumin assessed as Stem-Volmer quenching constant at 303 K after 1 hr by luminescence spectrometric analysis; details: cattle
MDA-MB-231 [32] = experiment: Cytotoxicity against human MDA-MB-231 cells assessed as disruption of mitochondrial membrane potential by measuring TMRM level in mitochondria at 10 uM after 24 hrs by fluorescence assay relative to control; type: functional

T1 sequence (P02769 whole entry): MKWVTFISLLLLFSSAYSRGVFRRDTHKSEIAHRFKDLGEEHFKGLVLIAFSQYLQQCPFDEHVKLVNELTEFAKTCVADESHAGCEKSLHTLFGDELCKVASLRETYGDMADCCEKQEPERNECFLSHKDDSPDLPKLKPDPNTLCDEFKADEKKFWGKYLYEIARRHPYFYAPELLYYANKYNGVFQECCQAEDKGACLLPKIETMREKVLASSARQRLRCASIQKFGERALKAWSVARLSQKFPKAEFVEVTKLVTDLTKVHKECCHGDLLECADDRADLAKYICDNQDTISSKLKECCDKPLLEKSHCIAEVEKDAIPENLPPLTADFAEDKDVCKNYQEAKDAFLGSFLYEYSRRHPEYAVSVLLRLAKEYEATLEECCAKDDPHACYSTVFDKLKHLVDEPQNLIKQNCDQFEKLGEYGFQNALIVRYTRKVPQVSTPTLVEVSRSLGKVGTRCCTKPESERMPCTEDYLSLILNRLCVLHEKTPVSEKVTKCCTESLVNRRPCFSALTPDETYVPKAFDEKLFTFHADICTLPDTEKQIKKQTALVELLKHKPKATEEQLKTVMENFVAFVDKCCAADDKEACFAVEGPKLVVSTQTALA

COc1ccc(-c2cc(=O)c3c(O)cc(O[C@@H]4O[C@H](CO[C@@H]5O[C@@H](C)[C@H](O)[C@@H](O)[C@H]5O)[C@@H](O)[C@H](O)[C@H]4O)cc3o2)cc1O [DIOSMIN]
IC50 (MDA-MB-231 [1]): 70 µM
Activity (T47D [2]): 96%
Activity [3]: 14%
Activity (SK-BR-3 [4]): 104%
Kq (Albumin [5]): 3.08 10^12L/mol/s
Activity [6]: inactive
deltaG (Albumin [7]): -5.863 kcal/mol
Activity [8]: inactive
KSV (Albumin [9]): 1.18 10^4L/mol
Activity (A549 [10]): inactive
IC50 (A549 [11]): > 40 µM
Activity (SK-BR-3 [12]): 116%
deltaG (Albumin [13]): -4.687 kcal/mol
Kq (Albumin [14]): 1.95 10^12L/mol/s
Ka (Albumin [15]): 1.84 10^4L/mol
KSV (Albumin [16]): 3.08 10^4L/mol
IC50 (T47D [17]): > 100 µM
Kq (Albumin [18]): 1.18 10^12L/mol/s
Activity (MDA-MB-231 [19]): 110%
deltaG (Albumin [20]): -5.373 kcal/mol
Activity (MDA-MB-231 [21]): 106%
Ka (Albumin [22]): 0.19 10^4L/mol
Activity (T47D [23]): 99%
TIME [24]: 0.0233 h
Activity (SK-BR-3 [25]): 78%
Ka (Albumin [26]): 0.88 10^4L/mol
Activity (T47D [27]): 105%
IC50 (SK-BR-3 [28]): > 100 µM
deltaH (Albumin [29]): -35.057 kcal/mol
Activity (A549 [30]): inactive
KSV (Albumin [31]): 1.95 10^4L/mol
Activity (MDA-MB-231 [32]): 104%
